Assay results reported in patent publication US20100249408A1, “USE OF NOVEL COMPOUND HAVING AFFINITY FOR AMYLOID, AND PROCESS FOR PRODUCTION OF THE SAME” (NIHON MEDI-PHYSICS CO., LTD., priority 2007, published 2010).
Read-outs that look alike come from different tables or passages of the source.

Tests used:
insulin amyloid = insulin amyloid (Homo sapiens, UniProt P01308); conditions: insulin amyloid 0.8 μg/mL, compound 0.2-20.2 pM, 22° C., 3 hours (FIG. 16)
Source text: (§1) Affinity of the present compounds with amyloid was examined by the following in vitro binding tests.

amylin amyloid = amylin amyloid (Homo sapiens, UniProt P10997); conditions: amylin amyloid 0.8 μg/mL, compound 0.2-20.2 pM, 22° C., 3 hours (FIG. 16)
Source text: as §1

[1] = target: β2-m-amyloid (aggregated β2-microglobulin) (Homo sapiens, UniProt P61769); conditions: β2-m-amyloid 0.8 μg/mL, compound 0.2-20.2 pM, 22° C., 3 hours (FIG. 16)
Source text: as §1

[2] = SD rat; for Radioactive distribution per unit weight, Adrenal gland, Average / Radioactive distribution per unit weight, Blood, Average / Radioactive distribution per unit weight, Bone, Average / Radioactive distribution per unit weight, Brain, Average / Radioactive distribution per unit weight, Heart, Average / Radioactive distribution per unit weight, Kidney, Average / Radioactive distribution per unit weight, Large intestine, Average / Radioactive distribution per unit weight, Liver, Average / Radioactive distribution per unit weight, Lung, Average / Radioactive distribution per unit weight, Marrow, Average / Radioactive distribution per unit weight, Muscle, Average / Radioactive distribution per unit weight, Pancreas, Average / Radioactive distribution per unit weight, Small intestine, Average / Radioactive distribution per unit weight, Spleen, Average / Radioactive distribution per unit weight, Stomach, Average: tail vein
Protocol: A solution of Compound 6 in diethylether was diluted with a 10 mg/mL ascorbic acid-containing physiological saline solution and adjusted to 8-12 MBq/mL in radioactive concentration. 0.2 mL each of the prepared sample solution was administered under non-anesthesia into the tail vein of the above rat. The rats were sacrificed by bleeding from abdominal artery, and each organ shown in Table 11 was removed 5, 30, 60 and 180 minutes after the administration. […] Also, radioactivity of the whole body of the rat after removal of the organs (hereinafter referred to as rest of the whole body) was measured. Using these measurement results, radioactive distribution per unit weight of each organ (% ID/g) at the respective time points was calculated in accordance with the following formula (6).
Three animals were used for the experiment at the respective time points.
[formula] • R^T: Radioactivity of target organ (cpm) • R^S: Sum of radioactivity of all the organs (cpm) • R^R: Radioactivity of the rest of the whole body (cpm) • M^T: Mass of target organ (g)

[3] = Transferability into brain and clearance (Example I-16, Comparative Example I-7); type: in vivo, male Wistar rats; conditions: rats, intravenous injection, two animals
Protocol: Using Compound 6, a time course change of radioactive accumulation in brain of male Wistar rats (7-week old) was measured.
Also, radioactivity (hereinafter referred to as B in this Example) of 0.05 mL of a 1000-fold diluted solution of the injected solution was measured in the same manner as above. Using these measurement results, radioactive accumulation per unit weight of brain (% ID/g) at the respective time points was calculated in accordance with the following formula (3).

[4] = target: intracerebral amyloid (aggregated Aβ1-40 injected into amygdaloid nucleus) (Homo sapiens, UniProt P05067); conditions: rat with Aβ1-40 amyloid suspension in one amygdaloid nucleus, tail vein, brain removed 60 minutes after injection
Protocol: The following experiment was carried out in order to examine whether amyloid in brain can be imaged by the compound of the present invention.
The rats were examined 1 day after the injection of the amyloid suspension and the phosphate buffered physiological saline solution (pH 7.4).
(4) Brain was removed 60 minutes after the injection to prepare a brain slice of 10 μm in thickness with a microtome (type: CM3050S, manufactured by LEICA).

Sequence of β2-m-amyloid (aggregated β2-microglobulin) (P61769 21-119): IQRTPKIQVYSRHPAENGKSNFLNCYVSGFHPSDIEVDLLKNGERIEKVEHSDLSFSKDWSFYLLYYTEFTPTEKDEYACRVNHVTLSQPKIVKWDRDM
Sequence of intracerebral amyloid (aggregated Aβ1-40 injected into amygdaloid nucleus) (P05067 672-711): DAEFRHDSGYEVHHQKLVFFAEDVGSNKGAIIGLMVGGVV
Sequence of amylin amyloid (P10997 34-70 limits assumed): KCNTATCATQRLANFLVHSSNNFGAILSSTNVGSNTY
Sequence of insulin amyloid (P01308 25-54 limits assumed): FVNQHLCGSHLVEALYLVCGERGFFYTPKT
Sequence of insulin amyloid (P01308 90-110 limits assumed): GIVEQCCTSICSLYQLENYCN

## Oc1ccc(-c2cn3cc([123I])ccc3n2)cc1 [Compound 6, [^123I]-2-(4′-hydroxyphenyl)-6-iodoimidazo[1,2-a]pyridine]
Insulin amyloid
  Radioactive count on glass fiber filter versus group without addition of amyloid: radioactivity was all high compared to the group without addition of amyloid suspension
Amylin amyloid
  Radioactive count on glass fiber filter versus group without addition of amyloid: radioactivity was all high compared to the group without addition of amyloid suspension
[1]
  Radioactive count on glass fiber filter versus group without addition of amyloid: radioactivity was all high compared to the group without addition of amyloid suspension
[2]; bone
  Ratio (% ID/g at 5 minutes after the administration)/(% ID/g at 180 minutes after the administration): 4
[2]; brain
  Ratio (% ID/g at 5 minutes after the administration)/(% ID/g at 180 minutes after the administration): 122
[2]; heart
  Ratio (% ID/g at 5 minutes after the administration)/(% ID/g at 180 minutes after the administration): 13
[2]; lung
  Ratio (% ID/g at 5 minutes after the administration)/(% ID/g at 180 minutes after the administration): 7
[2]; pancreas
  Ratio (% ID/g at 5 minutes after the administration)/(% ID/g at 180 minutes after the administration): 14
[2]; 5 min. after administration
  Radioactive distribution per unit weight, Adrenal gland, Average: 4.648 % ID/g
  Radioactive distribution per unit weight, Blood, Average: 0.285 % ID/g
  Radioactive distribution per unit weight, Bone, Average: 0.222 % ID/g
  Radioactive distribution per unit weight, Brain, Average: 0.721 % ID/g
  Radioactive distribution per unit weight, Heart, Average: 0.619 % ID/g
  Radioactive distribution per unit weight, Kidney, Average: 0.999 % ID/g
  Radioactive distribution per unit weight, Large intestine, Average: 0.116 % ID/g
  Radioactive distribution per unit weight, Liver, Average: 2.008 % ID/g
  Radioactive distribution per unit weight, Lung, Average: 0.657 % ID/g
  Radioactive distribution per unit weight, Marrow, Average: 0.713 % ID/g
  Radioactive distribution per unit weight, Muscle, Average: 0.381 % ID/g
  Radioactive distribution per unit weight, Pancreas, Average: 0.846 % ID/g
  Radioactive distribution per unit weight, Small intestine, Average: 1.078 % ID/g
  Radioactive distribution per unit weight, Spleen, Average: 0.462 % ID/g
  Radioactive distribution per unit weight, Stomach, Average: 0.360 % ID/g
[2]; 30 min. after administration
  Radioactive distribution per unit weight, Adrenal gland, Average: 0.642 % ID/g
  Radioactive distribution per unit weight, Blood, Average: 0.174 % ID/g
  Radioactive distribution per unit weight, Bone, Average: 0.088 % ID/g
  Radioactive distribution per unit weight, Brain, Average: 0.124 % ID/g
  Radioactive distribution per unit weight, Heart, Average: 0.147 % ID/g
  Radioactive distribution per unit weight, Kidney, Average: 0.540 % ID/g
  Radioactive distribution per unit weight, Large intestine, Average: 0.070 % ID/g
  Radioactive distribution per unit weight, Liver, Average: 0.509 % ID/g
  Radioactive distribution per unit weight, Lung, Average: 0.209 % ID/g
  Radioactive distribution per unit weight, Marrow, Average: 0.194 % ID/g
  Radioactive distribution per unit weight, Muscle, Average: 0.078 % ID/g
  Radioactive distribution per unit weight, Pancreas, Average: 0.207 % ID/g
  Radioactive distribution per unit weight, Small intestine, Average: 6.335 % ID/g
  Radioactive distribution per unit weight, Spleen, Average: 0.140 % ID/g
  Radioactive distribution per unit weight, Stomach, Average: 1.025 % ID/g
[2]; 60 min. after administration
  Radioactive distribution per unit weight, Adrenal gland, Average: 0.260 % ID/g
  Radioactive distribution per unit weight, Blood, Average: 0.122 % ID/g
  Radioactive distribution per unit weight, Bone, Average: 0.058 % ID/g
  Radioactive distribution per unit weight, Brain, Average: 0.030 % ID/g
  Radioactive distribution per unit weight, Heart, Average: 0.063 % ID/g
  Radioactive distribution per unit weight, Kidney, Average: 0.244 % ID/g
  Radioactive distribution per unit weight, Large intestine, Average: 0.066 % ID/g
  Radioactive distribution per unit weight, Liver, Average: 0.181 % ID/g
  Radioactive distribution per unit weight, Lung, Average: 0.120 % ID/g
  Radioactive distribution per unit weight, Marrow, Average: 0.000 % ID/g
  Radioactive distribution per unit weight, Muscle, Average: 0.034 % ID/g
  Radioactive distribution per unit weight, Pancreas, Average: 0.084 % ID/g
  Radioactive distribution per unit weight, Small intestine, Average: 8.207 % ID/g
  Radioactive distribution per unit weight, Spleen, Average: 0.075 % ID/g
  Radioactive distribution per unit weight, Stomach, Average: 1.043 % ID/g
[2]; 180 min. after administration
  Radioactive distribution per unit weight, Adrenal gland, Average: 0.020 % ID/g
  Radioactive distribution per unit weight, Blood, Average: 0.109 % ID/g
  Radioactive distribution per unit weight, Bone, Average: 0.053 % ID/g
  Radioactive distribution per unit weight, Brain, Average: 0.006 % ID/g
  Radioactive distribution per unit weight, Heart, Average: 0.047 % ID/g
  Radioactive distribution per unit weight, Kidney, Average: 0.108 % ID/g
  Radioactive distribution per unit weight, Large intestine, Average: 7.296 % ID/g
  Radioactive distribution per unit weight, Liver, Average: 0.083 % ID/g
  Radioactive distribution per unit weight, Lung, Average: 0.089 % ID/g
  Radioactive distribution per unit weight, Marrow, Average: 0.030 % ID/g
  Radioactive distribution per unit weight, Muscle, Average: 0.022 % ID/g
  Radioactive distribution per unit weight, Pancreas, Average: 0.060 % ID/g
  Radioactive distribution per unit weight, Small intestine, Average: 1.408 % ID/g
  Radioactive distribution per unit weight, Spleen, Average: 0.072 % ID/g
  Radioactive distribution per unit weight, Stomach, Average: 1.081 % ID/g
[3]; after 2 min.
  Radioactive accumulation in brain per unit weight: 0.96 % ID/g
[3]; after 5 min.
  Radioactive accumulation in brain per unit weight: 0.69 % ID/g
[3]; after 30 min.
  Radioactive accumulation in brain per unit weight: 0.16 % ID/g
[3]; after 60 min.
  Radioactive accumulation in brain per unit weight: 0.04 % ID/g
[4]
  Accumulation of radioactivity at intracerebral amyloid (autoradiogram): accumulating on intracerebral amyloid
